Measured values: article PMC4549624 (Scientific Reports, 2015)
Where two headings read alike, the source gives them in different places.

Columns and labels:
KCNQ1 = details: cited from earlier work
KCNE1 (human) = KCNE1 (human) (UniProt P15382)
KCNE1-R32D (human) = KCNE1-R32D (human) (UniProt P15382)

CCS(=O)(=O)N(C)[C@H]1c2cc(C#N)ccc2OC(C)(C)[C@@H]1O (racemic) [chromanol 293B]
effect on KCNQ1 (KCNQ1): inhibit the channel

COc1ccc(-c2csc(NC(=O)[C@H]3CCCCN3S(=O)(=O)c3ccc(C)cc3)n2)cc1 [ML277]
effect on KCNQ1 (KCNQ1; binds to side pocket in KCNQ1, especially KCNE1-free side pocket, in words): enhance the amplitude of the KCNQ1 current

O=C(Nc1cc(C(F)(F)F)ccc1O)Nc1cc(C(F)(F)F)ccc1O [NS1643]
effect on KCNQ1 (KCNQ1; binds to KCNQ1, in words): enhance the channel conductance

SSD609 (peptide)
current of wild-type KCNQ1/KCNE1 left under SSD609 in transfected CHO cells, whole-cell patch clamp (reference of the R32D mutant) (KCNE1 (human)): 30%
current of KCNQ1/KCNE1-R32D left under SSD609 in transfected CHO cells, whole-cell patch clamp (KCNE1-R32D (human)): < 10%
